The text below walks through data of patent publication US20230024302A1, “2,3,5-TRISUBSTITUTED PYRAZOLO[1,5-A]PYRIMIDINE COMPOUNDS” (Arcus Biosciences, Inc., priority 2019, published 2023).

The target of test [1] is T1, PI3Kγ (Homo sapiens, UniProt P48736).
T1 construct: host or cells: THP-1
The test is described as follows: PI3Kγ cellular assay in THP-1 cells (AKT pS473 AlphaLISA). It counts as cell-based. The settings on record: Table 2, rhMCP-1 stimulated AKT pS473, read-out: cellular potency (PI3Kγ IC50). The gist of the method: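 Endogenous AKT S473 phosphorylation, detected by AlphaLISA in lysates, serves as the PI3Kγ activity read-out in stimulated, serum-starved THP-1 cells (1.8×10^5/well).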

Test [2] addresses T2, PI3Kγ (p120γ) (Homo sapiens, UniProt P48736).
T2 construct: purchased Promega V1761
Nature of the test: Inhibition of PI3K kinase activity (ADP Glo), PI3Kγ. To be noted: Table 2, p120γ, read-out: biochemical potency (PI3Kγ IC50). A digest of the protocol:
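IC50 values come from a 4-parameter nonlinear fit of ADP-Glo luminescence, which measures ADP produced as PIP2 is phosphorylated to PIP3. The p120γ enzyme (2× stock 8 nM) sat with compound 1 h at rt before substrate (2× stocks: 50 μM ATP, 0.1 mg/ml PIP2) was added. Phosphorylation then proceeded 60 min at rt.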

Each structure is given as a SMILES string. A value given as a limit tells only on which side of the number the result lay.

T1 sequence (P48736 whole entry): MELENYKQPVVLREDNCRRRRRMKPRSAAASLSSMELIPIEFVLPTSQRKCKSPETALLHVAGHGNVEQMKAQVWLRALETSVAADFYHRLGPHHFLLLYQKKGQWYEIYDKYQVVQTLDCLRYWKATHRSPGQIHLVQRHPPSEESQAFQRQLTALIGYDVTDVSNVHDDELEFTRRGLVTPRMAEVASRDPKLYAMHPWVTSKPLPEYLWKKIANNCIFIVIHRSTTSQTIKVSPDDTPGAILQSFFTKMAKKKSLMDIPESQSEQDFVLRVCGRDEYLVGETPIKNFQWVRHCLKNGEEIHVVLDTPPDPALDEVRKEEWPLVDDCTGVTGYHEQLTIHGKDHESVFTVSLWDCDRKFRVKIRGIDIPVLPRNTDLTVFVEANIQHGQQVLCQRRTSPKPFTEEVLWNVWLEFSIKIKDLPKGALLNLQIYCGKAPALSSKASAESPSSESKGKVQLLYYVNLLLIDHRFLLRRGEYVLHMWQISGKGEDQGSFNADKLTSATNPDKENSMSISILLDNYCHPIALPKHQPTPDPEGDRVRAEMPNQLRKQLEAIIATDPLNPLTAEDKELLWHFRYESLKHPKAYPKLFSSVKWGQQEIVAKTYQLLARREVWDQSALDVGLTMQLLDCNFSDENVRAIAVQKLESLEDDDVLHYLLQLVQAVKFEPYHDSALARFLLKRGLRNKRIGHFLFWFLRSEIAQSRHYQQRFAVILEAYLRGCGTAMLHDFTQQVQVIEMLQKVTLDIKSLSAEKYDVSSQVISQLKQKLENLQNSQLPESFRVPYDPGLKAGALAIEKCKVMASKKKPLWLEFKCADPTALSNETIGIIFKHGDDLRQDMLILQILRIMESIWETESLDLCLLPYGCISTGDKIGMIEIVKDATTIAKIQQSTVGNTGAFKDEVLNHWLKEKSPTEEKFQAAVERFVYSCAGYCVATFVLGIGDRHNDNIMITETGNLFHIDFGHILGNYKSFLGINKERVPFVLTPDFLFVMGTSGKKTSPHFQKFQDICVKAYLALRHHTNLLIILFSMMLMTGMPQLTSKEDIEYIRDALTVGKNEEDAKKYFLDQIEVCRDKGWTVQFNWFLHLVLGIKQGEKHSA
T2 sequence (P48736 whole entry): as above

For the compound `Cc1cc(-c2ccn3nc(N)c(C(=O)NC[C@H]4CNC(=O)C4)c3n2)cc2c1C(=O)N([C@@H](C)C1CC1)C2` [Example 276], the IC50 is 100 to 1000 nM in test [1] and less than 100 nM in test [2].

As for `Cc1cc(-c2ccn3nc(N)c(C(=O)NC4CC45CC5)c3n2)cc2c1C(=O)N([C@@H](C)C1CC1)C2` (stereo partly drawn) [Example 277], the IC50 in test [1] was 100 to 1000 nM; in test [2], less than 100 nM.

As to `Cc1cc(-c2ccn3nc(N)c(C(=O)N[C@H](C)C4CC4)c3n2)cc2c1C(=O)N([C@@H](C)C1CC1)C2` [Example 278], the figures for the IC50 in test [1] and in test [2] were more than 1000 nM and less than 100 nM, respectively.

In the case of `Cc1cc(-c2ccn3nc(N)c(C(=O)NCC(=O)Nc4ccccc4)c3n2)cc2c1C(=O)N([C@@H](C)C1CC1)C2` [Example 279], the IC50 in test [1] was more than 1000 nM; in test [2], less than 100 nM.

Take `Cc1cc(-c2ccn3nc(N)c(C(=O)N4CCOCC4)c3n2)cc2c1C(=O)N(C(C)C1CC1)C2` (stereo not drawn) [Example 280]: the IC50 is more than 1000 nM in test [1] and less than 100 nM in test [2].

Turning to `Cc1cc(-c2ccn3nc(N)c(C(=O)NC4(c5ccccc5)CC4)c3n2)cc2c1C(=O)N([C@@H](C)C1CC1)C2` [Example 281], the IC50 was more than 1000 nM in test [1] and less than 100 nM in test [2].

For `Cc1cc(-c2ccn3nc(N)c(C(=O)N[C@@H]4CCNC4=O)c3n2)cc2c1C(=O)N([C@@H](C)C1CC1)C2` [Example 283], the figures for the IC50 in test [1] and in test [2] were 100 to 1000 nM and less than 100 nM, respectively.

As for `Cc1cc(-c2ccn3nc(N)c(C(=O)N[C@H]4c5ccccc5C[C@H]4O)c3n2)cc2c1C(=O)N([C@@H](C)C1CC1)C2` [Example 284], the IC50 was more than 1000 nM in test [1] and less than 100 nM in test [2].

For the compound `Cc1cc(-c2ccn3nc(N)c(C(=O)N[C@@H]4CCOc5ccccc54)c3n2)cc2c1C(=O)N([C@@H](C)C1CC1)C2` [Example 285], the IC50 in test [1] is more than 1000 nM; in test [2], less than 100 nM.

As for `Cc1cc(-c2ccn3nc(N)c(C(=O)N[C@H](C(N)=O)c4ccccc4)c3n2)cc2c1C(=O)N([C@@H](C)C1CC1)C2` [Example 286], the IC50 in test [1] is more than 1000 nM; in test [2] it was 100 to 1000 nM.

As for `Cc1cc(-c2ccn3nc(N)c(C(=O)NC(C)C4COC4)c3n2)cc2c1C(=O)N([C@@H](C)C1CC1)C2` (stereo partly drawn) [Example 287], the IC50 in test [1] and in test [2] was 100 to 1000 nM in each case.

`Cc1cc(-c2ccn3nc(N)c(C(=O)N4CCCC4CO)c3n2)cc2c1C(=O)N(C(C)C1CC1)C2` (stereo not drawn) [Example 288]: the IC50 in test [1] is more than 1000 nM; in test [2], 100 to 1000 nM.

With `Cc1cc(-c2ccn3nc(N)c(C(=O)N4CCCC4CO)c3n2)cc2c1C(=O)N(C(C)C1CC1)C2` (stereo not drawn) [Example 289], the IC50 in test [1] was more than 1000 nM; in test [2], 100 to 1000 nM.

For `Cc1cc(-c2ccn3nc(N)c(C(=O)N[C@@H](C)C4CCNCC4)c3n2)cc2c1C(=O)N([C@@H](C)C1CC1)C2` [Example 290], the IC50 is more than 1000 nM in test [1] and 100 to 1000 nM in test [2].

`Cc1cc(-c2ccn3nc(N)c(C(=O)N4CCN(C)CC4)c3n2)cc2c1C(=O)N(C(C)C1CC1)C2` (stereo not drawn) [Example 291]: the IC50 in test [1] and in test [2] was more than 1000 nM each time.

For the compound `Cc1cc(-c2ccn3nc(N)c(C(=O)Nc4cn(C)nc4C)c3n2)cc2c1C(=O)N([C@@H](C)C1CC1)C2` [Example 292], the results for the IC50 in test [1] and in test [2] were 100 to 1000 nM and less than 100 nM, respectively.

With `Cc1cc(NC(=O)c2c(N)nn3ccc(-c4cc(C)c5c(c4)CN([C@@H](C)C4CC4)C5=O)nc23)ccc1C(=O)O` [Example 293], the IC50 in test [1] was 100 to 1000 nM; in test [2] it was less than 100 nM.

With `Cc1cc(-c2ccn3nc(N)c(C(=O)Nc4cnn(C5CC5)c4)c3n2)cc2c1C(=O)N([C@@H](C)C1CC1)C2` [Example 294], the IC50 is 100 to 1000 nM in test [1] and less than 100 nM in test [2].

With `CCn1cc(NC(=O)c2c(N)nn3ccc(-c4cc(C)c5c(c4)CN([C@@H](C)C4CC4)C5=O)nc23)cn1` [Example 295], the IC50 is 100 to 1000 nM in test [1] and less than 100 nM in test [2].

`Cc1cc(-c2ccn3nc(N)c(C(=O)Nc4cnn(C)c4F)c3n2)cc2c1C(=O)N([C@@H](C)C1CC1)C2` [Example 296]: the IC50 is 100 to 1000 nM in test [1] and less than 100 nM in test [2].

In the case of `Cc1cc(NC(=O)c2c(N)nn3ccc(-c4cc(C)c5c(c4)CN([C@@H](C)C4CC4)C5=O)nc23)ccn1` [Example 297], the IC50 in test [1] is 100 to 1000 nM; in test [2] it was less than 100 nM.

Regarding `Cc1cc(-c2ccn3nc(N)c(C(=O)Nc4ccccc4)c3n2)cc2c1C(=O)N([C@@H](C)C1CC1)C2` [Example 298], the results for the IC50 in test [1] and in test [2] were more than 1000 nM and less than 100 nM, respectively.

On to `Cc1cc(-c2ccn3nc(N)c(C(=O)Nc4ccc(Cl)cc4)c3n2)cc2c1C(=O)N([C@@H](C)C1CC1)C2` [Example 299], for which the values for the IC50 in test [1] and in test [2] were more than 1000 nM and less than 100 nM, respectively.

Regarding `Cc1csc(NC(=O)c2c(N)nn3ccc(-c4cc(C)c5c(c4)CN([C@@H](C)C4CC4)C5=O)nc23)n1` [Example 300], the IC50 was more than 1000 nM in test [1] and less than 100 nM in test [2].

Turning to `Cc1cc(-c2ccn3nc(N)c(C(=O)NC4CC4)c3n2)cc2c1C(=O)N([C@@H](C1CC1)C(F)(F)F)C2` [Example 301], the IC50 in test [1] was 100 to 1000 nM; in test [2], less than 100 nM.

`CC[C@H](C)N1Cc2cc(-c3ccn4nc(N)c(C(=O)NC5CC5)c4n3)cc(C)c2C1=O` [Example 302]: the IC50 in test [1] was 100 to 1000 nM; in test [2], less than 100 nM.

As to `Cc1cc(-c2ccn3nc(N)c(C(=O)NC4CC4)c3n2)cc2c1C(=O)N(C1CC1)C2` [Example 303], the IC50 in test [1] was 100 to 1000 nM; in test [2], less than 100 nM.

`Cc1cc(-c2ccn3nc(N)c(C(=O)NC4CC4)c3n2)cc2c1C(=O)N(C(C)C)C2` [Example 304]: the IC50 in test [1] was 100 to 1000 nM; in test [2], less than 100 nM.

Consider `CCN1Cc2cc(-c3ccn4nc(N)c(C(=O)NC5CC5)c4n3)cc(C)c2C1=O` [Example 305], for which the IC50 in test [1] was 100 to 1000 nM; in test [2], less than 100 nM.

`CC[C@@H](C)N1Cc2cc(-c3ccn4nc(N)c(C(=O)NC5CC5)c4n3)cc(C)c2C1=O` [Example 306]: the IC50 in test [1] was 100 to 1000 nM; in test [2] it was less than 100 nM.

For the compound `Cc1cc(-c2ccn3nc(N)c(C(=O)NC4CC4)c3n2)cc2c1C(=O)N(CC1CC1)C2` [Example 307], the IC50 in test [1] was 100 to 1000 nM; in test [2] it was less than 100 nM.

On to `CC[C@H](CO)N1Cc2cc(-c3ccn4nc(N)c(C(=O)NC5CC5)c4n3)cc(C)c2C1=O` [Example 308], for which the IC50 in test [1] was 100 to 1000 nM; in test [2] it was less than 100 nM.

Turning to `CC[C@@H](CO)N1Cc2cc(-c3ccn4nc(N)c(C(=O)NC5CC5)c4n3)cc(C)c2C1=O` [Example 309], the figures for the IC50 in test [1] and in test [2] were 100 to 1000 nM and less than 100 nM, respectively.

Take `Cc1cc(-c2ccn3nc(N)c(C(=O)NC4CC4)c3n2)cc2c1C(=O)N([C@H](CO)C1CC1)C2` [Example 310]: the IC50 in test [1] is 100 to 1000 nM; in test [2], less than 100 nM.

`Cc1cc(-c2ccn3nc(N)c(C(=O)NC4CC4)c3n2)cc2c1C(=O)N([C@@H](CO)C1CC1)C2` [Example 311]: the IC50 was 100 to 1000 nM in test [1] and less than 100 nM in test [2].

On to `Cc1cc(-c2ccn3nc(N)c(C(=O)N[C@@H](CO)C4CC4)c3n2)cc2c1C(=O)N(C(C)(C)CO)C2` [Example 312], for which the IC50 in test [1] is 100 to 1000 nM; in test [2], less than 100 nM.

With `Cc1cc(-c2ccn3nc(N)c(C(=O)N[C@@H](C)c4ccccc4F)c3n2)cc2c1C(=O)N(C(C)(C)CO)C2` [Example 313], the IC50 in test [1] is 100 to 1000 nM; in test [2], less than 100 nM.

In the case of `Cc1cc(-c2ccn3nc(N)c(C(=O)NC4(C)COC4)c3n2)cc2c1C(=O)N(C(C)(C)CO)C2` [Example 314], the IC50 in test [1] was 100 to 1000 nM; in test [2] it was less than 100 nM.

Regarding `Cc1cc(-c2ccn3nc(N)c(C(=O)NC4COC4)c3n2)cc2c1C(=O)N(C(C)(C)CO)C2` [Example 315], the IC50 was 100 to 1000 nM in test [1] and less than 100 nM in test [2].

In the case of `Cc1cc(-c2ccn3nc(N)c(C(=O)NC4CC4)c3n2)cc2c1C(=O)N(C(C)(C)CO)C2` [Example 316], the IC50 in test [1] was 100 to 1000 nM; in test [2], less than 100 nM.

Take `Cc1cc(-c2ccn3nc(N)c(C(=O)N[C@H](C)c4ccccc4F)c3n2)cc2c1C(=O)N(C(C)(C)CO)C2` [Example 317]: the figures for the IC50 in test [1] and in test [2] were more than 1000 nM and less than 100 nM, respectively.

Consider `Cc1cc(-c2ccn3nc(N)c(C(=O)NC4(C)COC4)c3n2)cc2c1C(=O)N(CC(C)(C)O)C2` [Example 318], for which the results for the IC50 in test [1] and in test [2] were 100 to 1000 nM and less than 100 nM, respectively.

Take `Cc1cc(-c2ccn3nc(N)c(C(=O)NC4CC4)c3n2)cc2c1C(=O)N(CC(C)(C)O)C2` [Example 319]: the IC50 in test [1] is 100 to 1000 nM; in test [2], less than 100 nM.

Turning to `Cc1cc(-c2ccn3nc(N)c(C(=O)NC4COC4)c3n2)cc2c1C(=O)N(CC(C)(C)O)C2` [Example 320], the IC50 in test [1] is 100 to 1000 nM; in test [2] it was less than 100 nM.

For the compound `Cc1cc(-c2ccn3nc(N)c(C(=O)N[C@@H](CO)C4CC4)c3n2)cc2c1C(=O)N(CC(C)(C)O)C2` [Example 321], the IC50 in test [1] was 100 to 1000 nM; in test [2], less than 100 nM.

As to `Cc1cc(-c2ccn3nc(N)c(C(=O)NC4CC4)c3n2)cc2c1C(=O)N([C@H]1CC[C@@H](O)C1)C2` [Example 322], the IC50 is 100 to 1000 nM in test [1] and less than 100 nM in test [2].

Consider `Cc1cc(-c2ccn3nc(N)c(C(=O)NC4CC4)c3n2)cc2c1C(=O)N([C@H]1CC[C@H](O)C1)C2` [Example 323], for which the IC50 in test [1] is 100 to 1000 nM; in test [2], less than 100 nM.

Regarding `Cc1cc(-c2ccn3nc(N)c(C(=O)NC4CC4)c3n2)cc2c1C(=O)N([C@@H]1CCC[C@H](O)C1)C2` [Example 324], the values for the IC50 in test [1] and in test [2] were 100 to 1000 nM and less than 100 nM, respectively.
